Patent US8198327B2, “Fatty acid amides and uses thereof” (Yissum Research Development Company of the Hebrew …, priority 2008, dated 2012)
“Also recorded” adds a separate entry of the source. Where two headings read alike, the source gives them in different places.

Experiments:
[1] = test system: MC3T3 E1 osteoblastic cells; assay: MC3T3 E1 osteoblastic cell assay (cell number / proliferation); format: cell-based
From the text: FIGS. 1(A)-1(F) are graphical depictions of screening of fatty acid derivatives identified in brain for proliferative activity in MC3T3 E1 osteoblastic cells. (A), oleoyl-serine (HU-639); (B), palmitoyl-serine; (C), arachidonoyl-serine (HU-362); (D), arachidonoyl-ethanolamide; (E), palmitoyl-ethanolamide; (F), 2-arachidonoylglycerol. Data are mean±SE obtained in 3 culture wells per condition.
FIG. 9 represents methylated oleoyl-serine (HU-639) derivatives α-methyl oleoyl serine (HU-671) and 2-methyl-oleoyl serine (HU-681)) stimulation of MC3T3 E1 osteoblastic cell number at concentration 10- to 100-fold lower than HU-639. Data are mean±SE obtained in 3 culture wells per condition. *, ANOVA, p<0.05 vs. ligand-free control (Cntl).
(§1) Several lipid compounds present in the brain stimulated the proliferation of MC3T3 E1 osteoblast-like cells in vitro (FIG. 1). […] The HU-639 mitogenic effect was confirmed measuring BrdU incorporation in the MC3T3 E1 cells and in primary calvarial osteoblasts (FIG. 4A). […] Typical of some osteoblast mitogenic agents [Miguel et al, 2005], the dose-response curves representing oleoyl-serine (HU-639) activity in culture are bell shaped, with the peak stimulation of cell number followed by reversal of the effect to baseline levels (FIGS. 4A, 4B).
The oleoyl-serine derivatives α-methyl oleoyl serine (HU-671) and 2-methyl-oleoyl serine (HU-681) were tested in the MC3T3 E1 osteoblastic cell assay, HU-671 and HU-681 stimulated cell number with respective peak effects at 10^−12 M and 10^−13 M as compared to 10^−11 M of the parent HU-639 molecule (FIG. 9).

osteoblasts = assay: Blockade of oleoyl-serine (HU-639) mitogenic activity in osteoblasts; format: cell-based; details: MEK inhibitor, inhibition of Erk1/2 phosphorylation
From the text: (§2) FIGS. 4(A)-4(E) represents signaling of oleoyl-serine (HU-639) in osteoblasts. *, ANOVA, p<0.05 vs. oleoyl-serine (HU-639)-free control (Cntl).
as §1

MC3T3 E1 cells = assay: BrdU incorporation in MC3T3 E1 cells; format: cell-based
From the text: as §1

[2] = test system: primary calvarial osteoblasts; assay: BrdU incorporation in primary calvarial osteoblasts; format: cell-based
From the text: as §1

Erk1/2 phosphorylation [3] = assay: Erk1/2 phosphorylation in osteoblasts; format: cell-based
From the text: as §2, §1

osteoclasts = assay: Osteoclast survival in ex vivo culture of bone marrow-derived monocytes with M-CSF and RANKL; format: cell-based, mouse; details: 4 days with M-CSF and RANKL
From the text: (§3) (A), number of intact osteoclasts with the use of oleoyl-serine (HU-639); (B), number of apoptotic osteoclasts; (C), representative photomicrograph of culture oleoyl-serine (HU-639)-free control culture; (D), representative photomicrograph of culture treated with 10^−10 M oleoyl-serine (HU-639); (E), immunoblot analysis of Erk1/2 phosphorylation in preosteoclast-like RAW 264.7 cells. (F), RT-PCR analysis of RANKL and OPG expression in bone marrow-derived primary stromal cells. Quantitative data are mean±SE obtained in 3 culture wells per condition. Arrows indicate, apoptotic osteoclasts; *, ANOVA, p<0.05 vs. oleoyl-serine (HU-639)-free control (Cntl).
(§4) This inhibition is likely to have a restraining effect on osteoclast survival [Kim et al, 2009].

Erk1/2 phosphorylation [4] = assay: Immunoblot analysis of Erk1/2 phosphorylation in preosteoclast-like RAW 264.7 cells; format: cell-based
From the text: as §3, §4

RANKL expression = assay: RT-PCR analysis of RANKL expression in bone marrow-derived primary stromal cells; format: cell-based
From the text: as §3, §4

[5] = test system: ovariectomized (OVX) mice; assay: Ovariectomy (OVX) mouse model of osteoporosis, microCT and histomorphometry of distal femoral metaphysis; format: in vivo
Experimental: FIG. 6 oleoyl-serine (HU-639) rescues ovariectomy (OVX)-induced trabecular bone loss in mouse distal femoral metaphysis. Mice were OVXed or sham-OVXed and left untreated for 6 weeks to allow for bone loss. Thereafter, OVXed mice were treated by i.p. administration of oleoyl-serine (HU-639), 5 mg/Kg/day for 6 weeks and subjected to qualitative and quantitative analysis by microcomputed tomography. BV/TV, trabecular bone volume density. VEH, ethanol/emulphor/saline solvent. Data are mean±SE obtained in 6-8 mice per condition.
VEH, ethanol/emulphore/saline solvent. Histomorphometric analysis based on vital labeling of newly formed bone by calcein. Data are mean±SE obtained in 6-8 mice per condition. *, ANOVA, p<0.05 vs. Sham-OVX.
VEH, ethanol/emulphore/saline solvent. Osteoclast counts were based on osteoclast specific staining with tartrate-resistant acid phosphatase. Data are mean±SE obtained in 6-8 mice per condition. *, ANOVA, p<0.05 vs. Sham-OVX and OVX/VEH.
Based on the in vitro screening, the in vivo skeletal activity of oleoyl-serine (HU-639) in an ovariectomy (removal of ovaries; OVX) mouse model, the most widely used animal model for osteoporosis, was analyzed. Using this experimental system for testing bone anabolic activity, OVXed mice are left untreated to allow for bone loss to occur, followed by a treatment period intended for reversal of the bone loss [Alexander et al, 2001]. […] To further elucidate the process leading to the oleoyl-serine (HU-639) rescue of OVX-induced bone loss, the same mice were subjected to an analysis of bone formation and resorption by computerized histomorphometry (HM).

CCCCCCCC/C=C\CCCCCCCC(=O)NC(C)(CO)C(=O)O (racemic) [HU-671, N-oleoly α-methyl-DL-serine]
concentration of peak effect on cell number [1]: 10^−12 M

CCCCCCCC/C=C\CCCCCCC(C)C(=O)N[C@@H](CO)C(=O)O (stereo partly drawn) [HU-681, 2-Methyl Oleoyl-L-Serine]
concentration of peak effect on cell number [1]: 10^−13 M

COc1cccc(-c2cc(=O)c3ccccc3o2)c1N [PD98059]
blockade of oleoyl-serine (HU-639) mitogenic activity (osteoblasts): blocks the oleoyl-serine (HU-639) mitogenic activity dose-dependently

CCCCC/C=C\C/C=C\C/C=C\C/C=C\CCCC(=O)N[C@@H](CO)C(=O)O [arachidonoyl serine, N-arachidonoyl-serine, reference compound]
osteoblastic proliferation activity / potency [1]: some osteoblastic proliferation activity

CCCCCCCC/C=C\CCCCCCCC(=O)N[C@@H](CO)C(=O)O [HU-639, N-Oleoyl L-Serine]
concentration of peak effect on cell number [1]: 10^−11 M | osteoblastic proliferation activity / potency [1]: highest potency | cell number ([1]; at 10^−11 M concentration): more than doubling cell number | osteoblastic proliferation activity / potency ([1]; listed as oleoyl serine): considerably more potent | shape of dose-response curves in culture (MC3T3 E1 cells; FIGS. 4A, 4B, peak stimulation of cell number followed by reversal to baseline): bell shaped | mitogenic effect by BrdU incorporation (MC3T3 E1 cells; MC3T3 E1 cells): confirmed | mitogenic effect by BrdU incorporation [2]: confirmed | Erk1/2 phosphorylation (Erk1/2 phosphorylation [3]): stimulates Erk1/2 phosphorylation | osteoclast apoptosis (osteoclasts): stimulating osteoclast apoptosis | osteoclast survival (number of intact osteoclasts) (osteoclasts): inhibition of osteoclast survival; also recorded: inhibits osteoclast survival | Erk phosphorylation (Erk1/2 phosphorylation [4]): reduced Erk phosphorylation, mainly p42 | RANKL expression (RANKL expression): inhibits RANKL expression | reversal of bone loss compared with parathyroid hormone (1-34) ([5]; comparison with literature [Alexander et al, 2001]): greater than the reversal of bone volumetric density by parathyroid hormone (1-34) | bone resorption, osteoclast counts (TRAP staining) ([5]; distal femoral metaphyseal trabecular bone): decreasing of osteoclast number; also recorded: markedly inhibited bone resorption | mineral appositional rate (MAR) ([5]; histomorphometry, calcein labeling): stimulated mineral appositional rate | overall trabecular bone formation ([5]; histomorphometry, compared to sham- and vehicle-treated OVXed controls): stimulation of trabecular bone formation; also recorded: stimulation of overall bone formation | difference in trabecular bone volume density (BV/TV) vs controls ([5]; vs vehicle treated OVXed controls (so in the source)): statistically insignificant

CCCCCCCCCCCCCCCC(=O)NCCO [palmitoyl ethanolamide, reference compound]
osteoblastic proliferation activity / potency [1]: some osteoblastic proliferation activity

CCCCC/C=C\C/C=C\C/C=C\C/C=C\CCCC(=O)NCCO [anandamide, arachidonoyl ethanolamide, reference compound]
osteoblastic proliferation activity / potency [1]: some osteoblastic proliferation activity
